Measured values published in US5917056A (priority 1995, dated 1999).

Legend:
A549 (Human NSCLC) = assay: Cytotoxicity on tumour cell lines, A549 (Human NSCLC); format: cell-based; conditions: exposure time 72 h
Procedure: (§1) Standard conditions: basal medium=RPMI 1640+20 mM HEPES+2 mM L-glutamine.

L1210 (murine leukemia) = assay: Cytotoxicity on tumour cell lines, L1210 (murine leukemia); format: cell-based; conditions: Mus musculus, exposure time 72 h
Procedure: as §1

HT-29 (Human colon) = assay: Cytotoxicity on tumour cell lines, HT-29 (Human colon); format: cell-based; conditions: exposure time 72 h
Procedure: as §1

A121 (Human ovarian) = assay: Cytotoxicity on tumour cell lines, A121 (Human ovarian); format: cell-based; conditions: exposure time 72 h
Procedure: as §1

MCF7 (Human breast) = assay: Cytotoxicity on tumour cell lines, MCF7 (Human breast); format: cell-based; conditions: exposure time 72 h
Procedure: as §1

tumours [1] = assay: cytotoxic and antitumour activity (statement in words)
[2] = adverse effects / tolerability (statement in words); conditions: compared with paclitaxel / prior art
tumours [3] = conditions: background art, cited from earlier work
MCF7-ADR (resistant) = assay: cells; format: cell-based; conditions: Homo sapiens, NCI/ADR-RES, 72 h
[4] = clinical use, background art; cited from earlier work

SMILES: CC(=O)O[C@H]1C(=O)[C@@]2(C)[C@H]([C@H](OC(=O)c3ccccc3)[C@]34OC(=S)O[C@H]3[C@H](OC(=O)[C@H](O)[C@H](CC(C)C)NC(=O)OC(C)(C)C)C(C)=C1C4(C)C)[C@]1(OC(C)=O)CO[C@@H]1C[C@@H]2O [Compound 5, 13-[(2R,3S)-3-tert-butoxycarbonyl-amino-2-hydroxy-3-isobutyl-propanoyl]-14β-hydroxybaccatine III 1,14-thiocarbonate]
- IC50 (A549 (Human NSCLC)): 2.3 ± 0.3 nM
- IC50 (L1210 (murine leukemia)): 0.5 ± 0.1 nM
- IC50 (HT-29 (Human colon)): 0.3 ± 0.1 nM
- IC50 (A121 (Human ovarian)): 0.8 ± 0.3 nM
- IC50 (MCF7 (Human breast)): 1.2 ± 0.2 nM
- activity (in words) (tumours [1]): particularly active

SMILES: CC(=O)O[C@H]1C(=O)[C@@]2(C)[C@H]([C@H](OC(=O)c3ccccc3)[C@]34OC(=S)O[C@H]3[C@H](OC(=O)[C@H](O)[C@H](C=C(C)C)NC(=O)OC(C)(C)C)C(C)=C1C4(C)C)[C@]1(OC(C)=O)CO[C@@H]1C[C@@H]2O [Compound 6, 13-[(2R,3S)-3-tert-butoxycarbonylamino-2-hydroxy-3-isobutenyl-propanoyl]-14β-hydroxybaccatine III 1,14-thiocarbonate]
- activity (in words) (tumours [1]): particularly active

SMILES: CCCCCC(=O)N[C@@H](C=C(C)C)[C@@H](O)C(=O)O[C@@H]1C(C)=C2[C@@H](OC(C)=O)C(=O)[C@@]3(C)[C@H]([C@H](OC(=O)c4ccccc4)[C@@]4(OC(=S)O[C@@H]14)C2(C)C)[C@]1(OC(C)=O)CO[C@@H]1C[C@@H]3O [Compound 7, 13-[(2R,3S)-3-caproylamino-2-hydroxy-3-isobutenyl-propanoyl]-14β-hydroxybaccatine III 1,14-thiocarbonate III]
- activity (in words) (tumours [1]): particularly active

SMILES: CCCCCC(=O)N[C@@H](C=C(C)C)[C@@H](O)C(=O)O[C@@H]1C(C)=C2[C@@H](OC(C)=O)C(=O)[C@@]3(C)[C@H]([C@H](OC(=O)c4ccccc4)[C@@]4(OC(=N)O[C@@H]14)C2(C)C)[C@]1(OC(C)=O)CO[C@@H]1C[C@@H]3O [Compound 8, 13-[(2R,3S)-3-caproylamino-2-hydroxy-3-isobutenyl-propanoyl]-14β-hydroxybaccatine III 1,14-iminocarbonate]
- IC50 (A549 (Human NSCLC)): 2.1 ± 0.3 nM
- IC50 (L1210 (murine leukemia)): 2.4 ± 0.1 nM
- IC50 (HT-29 (Human colon)): 0.5 ± 0.1 nM
- IC50 (A121 (Human ovarian)): 1.9 ± 0.2 nM
- IC50 (MCF7 (Human breast)): 0.8 ± 0.2 nM
- drawbacks / tolerability [2]: advantages compared with the compounds of the prior art in terms of both activity and tolerability
- activity (in words) (tumours [1]): advantages compared with the compounds of the prior art in terms of both activity and tolerability

SMILES: CCCCCC(=O)N[C@@H](C=C(C)C)[C@@H](O)C(=O)O[C@@H]1C(C)=C2[C@@H](OC(C)=O)C(=O)[C@@]3(C)[C@H]([C@H](OC(=O)c4ccccc4)[C@@]4(OS(=O)O[C@@H]14)C2(C)C)[C@]1(OC(C)=O)CO[C@@H]1C[C@@H]3O (stereo partly drawn) [Compound 9, 13-[(2R,3S)-3-caproylamino-2-hydroxy-3-isobutenyl-propanoyl]-14β-hydroxybaccatine-III 1,14-sulfite]
- IC50 (A549 (Human NSCLC)): 1.8 ± 0.2 nM
- IC50 (L1210 (murine leukemia)): 1.8 ± 0.1 nM
- IC50 (HT-29 (Human colon)): 0.5 ± 0.1 nM
- IC50 (A121 (Human ovarian)): 1.1 ± 0.1 nM
- IC50 (MCF7 (Human breast)): 1 ± 0.3 nM
- drawbacks / tolerability [2]: advantages compared with the compounds of the prior art in terms of both activity and tolerability
- activity (in words) (tumours [1]): advantages compared with the compounds of the prior art in terms of both activity and tolerability

SMILES: CC(=O)O[C@H]1C(=O)[C@@]2(C)[C@H]([C@H](OC(=O)c3ccccc3)[C@]3(O)C[C@H](OC(=O)[C@H](O)[C@@H](NC(=O)c4ccccc4)c4ccccc4)C(C)=C1C3(C)C)[C@]1(OC(C)=O)CO[C@@H]1C[C@@H]2O [Paclitaxel, paclitaxel, reference compound]
- IC50 (A549 (Human NSCLC)): 5.7 ± 0.5 nM
- IC50 (L1210 (murine leukemia)): 7.5 ± 2 nM
- IC50 (HT-29 (Human colon)): 6.9 ± 0.4 nM
- IC50 (A121 (Human ovarian)): 4.7 ± 0.3 nM
- IC50 (MCF7 (Human breast)): 4.8 ± 0.1 nM
- induction of resistance (tumours [3]): induces resistance quickly
- anticancerogenic activity (tumours [3]; different forms of human tumours): anticancerogenic activity on different forms of human tumours
- IC50 (MCF7-ADR (resistant)): 395 ± 8.7 nM
- clinical drawbacks [4]: cardiotoxicity
